Test results taken from patent US20220017572A1, “GEMINOID LIPOPEPTIDE COMPOUNDS AND THEIR USES” (Erasmus University Medical Center Rotterdam, priority 2016, published 2022).
Residues, ends and D or L forms follow the SMILES beside them.

Experiments:
[1] = target: T1, dengue 2 protease (Dengue virus type 2, UniProt P14340); test: Dengue 2 protease inhibition, hydrolysis of Z-RR-MCA; format: biochemical, dengue 2 virus; design: unit not given here; settings: 10 μM Z-RR-MCA, pH 9.0, 37° C., initial activity in UAF/min
T1 construct: The active site of the dengue protease is in the N-terminal part of NS3

[2] = target: T1, dengue 2 protease; test: as above; format: biochemical, dengue 2 virus; settings: for activity at 2.5 µM: 2.5 μM inhibitor; for activity at 5 µM: 5 μM inhibitor; for activity at 10 µM: 10 μM inhibitor; for activity at 15 µM: 15 μM inhibitor; for activity at 40 µM: 40 μM inhibitor; for activity at 20 µM: 20 μM inhibitor
Protocol: The active site of the dengue protease is in the N-terminal part of NS3 which is also a serine protease with catalytic triad Asp79-His51-Ser135, but requires […] (CF40) for activity; the inhibition reported here was studied on a […] (CF40-GGGGSGGGG-NS3; (SEQ ID NO:54)) which has also been structurally characterized [Erbel et al., 2006; Luo et al. 2008].
(§1) Substrate was added in a concentration 10 times the Km, and the inhibitor compounds of type C (C16-KGnK-C16, C16-KAnK-C16, and C16-RAnR-C16) were added in increasing concentrations (1.0, 5.0, 10.0, 20.0, 40.0 μL) from a stock solution of 2 mg in 1 mL DMSO. The residual activity was measured in a Hitachi F2500 spectrofluorimeter, and plots were fitted using the Grafit® software (Erithracus Software, Horley, Surrey, UK). All the assays were calculated by the Morrison equation for competitive inhibition (eq. 1, [Morrison, 1969]). The amount of substrate used for the tight binding titration experiments follow all the requirements, where [S]<<Km for all enzymes, so the Kiapp=Ki.
(§2) Range of Proteases Inhibited by Geminoids, Determination of Ki with Z-RR-MCA (Dengue 2 Protease) and Ac-RVRR-MCA (Furin) (SEQ ID NO:60).

[3] = target: T1, dengue 2 protease; test: Dengue 2 protease inhibition in presence of Triton X-100 (detergent test, Nature Protocol); format: biochemical, dengue 2 virus; settings: 0.05% Triton X-100; for Activity with 0.05% Triton: initial activity in UAF/min
Source text: A further investigation of the interactions of the geminoid inhibitors with biological membranes and with membrane-bound proteases is needed. […] The preparation and tests of peptides symmetrically, asymmetrically and singly alkylated with saturated, short (C6), and unsaturated (C18:1) alkyl tails are in progress.

[4] = target: T2, trypsin (Bos taurus, UniProt P00760); test: Trypsin inhibition, fluorimetric enzyme assay; format: biochemical; settings: for remaining activity at 15 µM: 15 μM inhibitor; for remaining activity at 15 µM / remaining activity at 40 µM / remaining activity at 80 µM / remaining activity at 18 µM / remaining activity at 55 µM / remaining activity at 85 µM: 36.5° C., read-out: Residual Activity (%) Trypsin; for remaining activity at 40 µM: 40 μM inhibitor; for remaining activity at 80 µM: 80 μM inhibitor; for remaining activity at 18 µM: 18 μM inhibitor; for remaining activity at 55 µM: 55 μM inhibitor; for remaining activity at 85 µM: 85 μM inhibitor
T2 construct: gene PRSS1
T2 sequence (P00760 24-246): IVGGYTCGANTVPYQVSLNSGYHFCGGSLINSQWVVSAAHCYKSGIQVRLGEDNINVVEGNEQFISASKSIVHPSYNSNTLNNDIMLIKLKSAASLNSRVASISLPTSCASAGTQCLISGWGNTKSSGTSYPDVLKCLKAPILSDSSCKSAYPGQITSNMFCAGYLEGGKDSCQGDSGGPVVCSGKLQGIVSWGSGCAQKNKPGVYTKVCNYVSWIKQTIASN
Protocol: as §1, with “The enzyme was dissolved in 1 mL MES buffer (10 mM), 1 mM CaCl2, pH 7.0 at 36.5° C. Substrate” for “Substrate”
(§3) The first group of gemini-like peptide amphiphiles to be screened was that of C16-K(G or A)nK-C16 (compound type C, with R1=n-C15H31, R2=n-C16H33). […] The results of the Ki determination for trypsin, dengue 2 protease, and human furin are given in Table 1A; some general data for the inhibition by this type of compounds are given in Table 1B. For most compounds in Table 1 the Ki could be derived from competitive inhibition experiments. Judging from the Ki values with the relatively simple substrate Z-RR-MCA, the best inhibitors for dengue 2 protease contain alanine (A) rather than glycine (G).

[5] = target: human furin (Homo sapiens, UniProt P09958); test: Human furin inhibition, hydrolysis of Ac-RVRR-MCA; format: biochemical; settings: for activity at 2.5 µM: 2.5 μM inhibitor; for activity at 5 µM: 5 μM inhibitor; for activity at 10 µM: 10 μM inhibitor; for activity at 15 µM: 15 μM inhibitor; for activity at 40 µM: 40 μM inhibitor; for Ki: 10 mM Mes.NaOH, pH 7.0, 2.35 μM Ac-RVRR-MCA, 37° C., read-out: Ki hFurin; for activity at 20 µM: 20 μM inhibitor
Protocol: as §1, with “The enzyme was dissolved in 1 mL MES buffer (10 mM), 1 mM CaCl2, pH 7.0 at 36.5° C. Substrate” for “Substrate”
However, for furin we used a correction of Ki app, where [S]˜Km (eq. 2).
as §2

[6] = target: thrombin (Homo sapiens, UniProt P00734); test: Thrombin inhibition, fluorimetric enzyme assay; format: biochemical; settings: 36.5° C., read-out: Residual Activity (%) Thrombin; for remaining activity at 18 µM: 18 μM inhibitor; for remaining activity at 55 µM: 55 μM inhibitor; for remaining activity at 85 µM: 85 μM inhibitor
Protocol: as §1, with “The enzyme was dissolved in 1 mL MES buffer (10 mM), 1 mM CaCl2, pH 7.0 at 36.5° C. Substrate” for “Substrate”, “Kiapp=Ki. […]” for “Kiapp=Ki.”

[7] = target: plasmin (Homo sapiens, UniProt P00747); test: Plasmin inhibition, fluorimetric enzyme assay; format: biochemical; settings: 36.5° C., read-out: Residual Activity (%) Plasmin
Protocol: as §1, with “The enzyme was dissolved in 1 mL MES buffer (10 mM), 1 mM CaCl2, pH 7.0 at 36.5° C. Substrate” for “Substrate”
as §3

T1 sequence (P14340 1476-1653): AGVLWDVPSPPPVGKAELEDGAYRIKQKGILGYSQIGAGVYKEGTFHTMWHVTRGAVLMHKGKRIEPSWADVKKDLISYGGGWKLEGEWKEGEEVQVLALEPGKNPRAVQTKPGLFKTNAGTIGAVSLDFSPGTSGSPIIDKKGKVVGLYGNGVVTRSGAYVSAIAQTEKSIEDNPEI
plasmin, sequence (P00747 581-810 limits assumed, species assumed): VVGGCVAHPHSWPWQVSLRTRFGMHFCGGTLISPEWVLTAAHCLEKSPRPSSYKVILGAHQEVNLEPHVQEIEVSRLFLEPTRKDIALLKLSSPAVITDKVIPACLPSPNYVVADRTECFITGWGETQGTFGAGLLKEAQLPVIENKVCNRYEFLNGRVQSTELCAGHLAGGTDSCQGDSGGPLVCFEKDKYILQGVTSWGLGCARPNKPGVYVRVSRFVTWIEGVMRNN
plasmin, sequence (P00747 97-580 partner limits assumed, species assumed): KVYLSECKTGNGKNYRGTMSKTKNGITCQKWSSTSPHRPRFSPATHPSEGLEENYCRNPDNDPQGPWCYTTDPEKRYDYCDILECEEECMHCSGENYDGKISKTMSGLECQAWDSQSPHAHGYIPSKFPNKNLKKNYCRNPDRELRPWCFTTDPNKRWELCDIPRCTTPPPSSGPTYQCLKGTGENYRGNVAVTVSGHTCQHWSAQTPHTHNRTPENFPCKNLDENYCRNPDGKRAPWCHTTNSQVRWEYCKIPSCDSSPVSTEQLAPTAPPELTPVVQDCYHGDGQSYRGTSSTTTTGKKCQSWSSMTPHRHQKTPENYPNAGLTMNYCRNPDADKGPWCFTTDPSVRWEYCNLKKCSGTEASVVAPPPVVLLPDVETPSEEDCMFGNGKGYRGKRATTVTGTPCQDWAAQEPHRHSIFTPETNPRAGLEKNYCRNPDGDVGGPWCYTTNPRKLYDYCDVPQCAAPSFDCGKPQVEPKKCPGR
human furin, sequence (P09958 108-794): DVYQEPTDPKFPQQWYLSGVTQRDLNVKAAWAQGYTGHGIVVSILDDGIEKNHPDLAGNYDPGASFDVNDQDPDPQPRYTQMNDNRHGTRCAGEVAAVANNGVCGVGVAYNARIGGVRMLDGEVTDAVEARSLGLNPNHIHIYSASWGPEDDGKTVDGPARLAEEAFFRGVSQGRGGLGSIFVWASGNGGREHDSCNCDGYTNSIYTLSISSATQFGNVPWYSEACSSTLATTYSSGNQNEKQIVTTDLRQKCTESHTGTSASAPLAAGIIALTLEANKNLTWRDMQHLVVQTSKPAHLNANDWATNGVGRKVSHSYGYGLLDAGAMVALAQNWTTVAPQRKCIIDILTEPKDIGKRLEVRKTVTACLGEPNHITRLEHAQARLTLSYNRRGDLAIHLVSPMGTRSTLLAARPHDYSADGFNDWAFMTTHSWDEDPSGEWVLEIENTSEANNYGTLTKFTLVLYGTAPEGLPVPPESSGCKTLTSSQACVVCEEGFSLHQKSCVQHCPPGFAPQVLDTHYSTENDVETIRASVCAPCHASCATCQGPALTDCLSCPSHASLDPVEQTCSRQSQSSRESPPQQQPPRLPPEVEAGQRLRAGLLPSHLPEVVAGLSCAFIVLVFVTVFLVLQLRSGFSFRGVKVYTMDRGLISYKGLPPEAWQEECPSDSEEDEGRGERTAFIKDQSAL

Structure (SMILES)	Ki [2]	activity at 5 µM ([2]; 36.5° C.)	activity at 10 µM ([2]; 36.5° C.)	activity at 15 µM ([2]; 36.5° C.)	activity at 40 µM ([2]; 36.5° C.)	remaining activity at 15 µM [4]	activity at 5 µM ([5]; 36.5° C.)	activity at 10 µM ([5]; 36.5° C.)	activity at 15 µM ([5]; 36.5° C.)	activity at 40 µM ([5]; 36.5° C.)	Activity with inhibitors ([1]; 30 μM of inhibitor)	activity at 20 µM ([2]; 36.5° C.)	% recovery in presence of Triton ([3]; 30 μM of inhibitor)	Activity with 0.05% Triton ([3]; 30 μM of inhibitor)	remaining activity at 55 µM [6]	remaining activity at 85 µM [6]	remaining activity at 55 µM [4]	remaining activity at 85 µM [4]	activity at 20 µM ([5]; 36.5° C.)	Ki [4]	further results
CCCCCCCCCCCCCCCCNC(=O)[C@H](CCCCN)NC(=O)[C@H](C)NC(=O)[C@H](C)NC(=O)[C@H](C)NC(=O)[C@H](C)NC(=O)[C@H](CCCCN)NC(=O)CCCCCCCCCCCCCCC [C16-KAAAAK-C16] (HELM PEPTIDE1{[CCCCCCCCCCCCCCCC(=O)[*:2]].K.A.A.A.A.K.[CCCCCCCCCCCCCCCCN[*:1]]}$$$$V2.0)	2400 nM	90%	85%	79%	45%	73%	59%	52%	45%	0%											Activity with inhibitors ([1]; 20 μM of inhibitor): 47; activity at 2.5 µM ([2]; 36.5° C.): 94%; % recovery in presence of Triton ([3]; 20 μM of inhibitor): 67%; Activity with 0.05% Triton ([3]; 20 μM of inhibitor): 133; remaining activity at 40 µM [4]: 35%; remaining activity at 80 µM [4]: 20%; activity at 2.5 µM ([5]; 36.5° C.): 70%; Ki [5]: 1750 nM
CCCCCCCCCCCCCCCCNC(=O)[C@H](CCCCN)NC(=O)CNC(=O)CNC(=O)CNC(=O)CNC(=O)[C@H](CCCCN)NC(=O)CCCCCCCCCCCCCCC [C16KG4KC16] (HELM PEPTIDE1{[CCCCCCCCCCCCCCCC(=O)[*:2]].K.G.G.G.G.K.[CCCCCCCCCCCCCCCCN[*:1]]}$$$$V2.0)	1370 nM	86%	78%	70%	45%		82%	64%	54%	0%	0	60%	63%	125	59%	41%	67%	53%	23%		remaining activity at 18 µM [6]: 88%; remaining activity at 18 µM [4]: 81%
CCCCCCCCCCCCCCCCNC(=O)[C@H](CCCCN)NC(=O)CNC(=O)CNC(=O)CNC(=O)[C@H](CCCCN)NC(=O)CCCCCCCCCCCCCCC [C16-KGGGK-C16, C15H31CO-KGGGK-NH—C16H33] (HELM PEPTIDE1{[CCCCCCCCCCCCCCCC(=O)[*:2]].K.G.G.G.K.[CCCCCCCCCCCCCCCCN[*:1]]}$$$$V2.0)	2500 nM	86%	80%	74%	51%		68%	35%	29%	0%	40	65%	75%	154	64%	45%	56%	38%	20%	11100 nM	remaining activity at 18 µM [6]: 81%; remaining activity at 18 µM [4]: 84%
CCCCCCCCCCCCCCCCNC(=O)[C@H](CCCNC(=N)N)NC(=O)[C@H](C)NC(=O)[C@H](C)NC(=O)[C@H](CCCNC(=N)N)NC(=O)CCCCCCCCCCCCCCC [C16RA2RC16, n-C15H31C(O)-Arg-(Ala)2-Arg-(n-C16H33).2TFA] (HELM PEPTIDE1{[CCCCCCCCCCCCCCCC(=O)[*:2]].R.A.A.R.[CCCCCCCCCCCCCCCCN[*:1]]}$$$$V2.0)	2100 nM										0		61%	128							
CCCCCCCCCCCCCCCCNC(=O)[C@H](CCCCN)NC(=O)[C@H](CCCCN)NC(=O)CCCCCCCCCCCCCCC [C16-KK-C16, C15H31CO-KK-NH—C16H33]	5370 nM					82%					48	58%	52%	113	48%	37%	58%	43%	10%	84700 nM	remaining activity at 15 µM ([7]; 15 μM inhibitor): 39%; remaining activity at 55 µM ([7]; 55 μM inhibitor): 11%; remaining activity at 85 µM ([7]; 85 μM inhibitor): 4%; activity at 50 µM ([2]; 50 μM inhibitor, 36.5° C.): 37%; activity at 100 µM ([2]; 100 μM inhibitor, 36.5° C.): 7%; remaining activity at 15 µM ([6]; 15 μM inhibitor): 62%; activity at 50 µM ([5]; 50 μM inhibitor, 36.5° C.): 5%; activity at 100 µM ([5]; 100 μM inhibitor, 36.5° C.): 0%
CCCCCCCCCCCCCCCCNC(=O)[C@H](CCCCN)NC(=O)[C@H](C)NC(=O)[C@H](C)NC(=O)[C@H](C)NC(=O)[C@H](CCCCN)NC(=O)CCCCCCCCCCCCCCC [C16-KAAAK-C16] (HELM PEPTIDE1{[CCCCCCCCCCCCCCCC(=O)[*:2]].K.A.A.A.K.[CCCCCCCCCCCCCCCCN[*:1]]}$$$$V2.0)	1410 nM	85%	75%	64%	25%	79%	56%	24%	10%	0%	0		50%	91						40300 nM	activity at 2.5 µM ([2]; 36.5° C.): 91%; remaining activity at 40 µM [4]: 54%; remaining activity at 80 µM [4]: 40%; activity at 2.5 µM ([5]; 36.5° C.): 73%; Ki [5]: 1720 nM
